In patent publication US20040261578A1, “Stable self-organizing plant-organism systems for remediating polluted soils and waters” (priority 2003, published 2004):

Key:
maize inbred line Mo17 = assay: Shoot length of Mo17 after soil treatments and T22 seed treatment, Arkport sandy loam field soil; format: in vivo; conditions: no seed treatment, soil drenched with mefenoxam, seven days after planting
Method: Ten-day assays were conducted in larger boxes (5×11×11 cm). Four or five seeds, either treated or not treated with T22, were planted in each box and plants were grown for various lengths of time with 12 hr diurnal fluorescent lighting and were watered as needed. In some experiments, soils were autoclaved to examine maize growth responses in the absence of natural soil pathogens. In addition, some soils were drenched with mefenoxam ((R)-2-[2,6-dimethylphenyl)-methoxyacetylamino]-propionic acid methyl ester]; Subdue MAXX, Novartis, Research Triangle, NC) according to the manufacturer's directions.

wheat seedlings = conditions: 15000 ppm Prussian blue; 4.5 cm in its absence
From the text: Ten wheat seeds were germinated in petri dishes containing approximately 50 g of grit sand. Each dish was moistened with plant nutrient solution in the presence or absence of 15000 ppm metallocyanide Prussian blue.

Structure (SMILES) | Shoot length (maize inbred line Mo17) | Mean root length of the wheat seedlings (wheat seedlings)
COCC(=O)N(c1c(C)cccc1C)[C@H](C)C(=O)OC [mefenoxam] | 63ab xy mm | 
[C-]#N.[C-]#N.[C-]#N.[C-]#N.[C-]#N.[C-]#N.[C-]#N.[C-]#N.[C-]#N.[C-]#N.[C-]#N.[C-]#N.[C-]#N.[C-]#N.[C-]#N.[C-]#N.[C-]#N.[C-]#N.[Fe+2].[Fe+2].[Fe+2].[Fe+3].[Fe+3].[Fe+3].[Fe+3] [Prussian blue, Fe4 [Fe(CN)6]3] |  | 2.0 cm
